From patent publication EP1293213A1, “PREVENTIVES/REMEDIES FOR POSTOPERATIVE STRESS” (Japan Tobacco Inc., priority 2000, dated 2001) come the findings set out here.

Where two headings read alike, the source gives them in different places.

One assay has as its system corticosterone. The assay can be described thus: Test 2: Effects on a rise in releasing of corticosterone caused by surgical stress. The assay is classed as in vivo, mouse. The conditions noted are these: mice. On the procedure:
Test 2 Effects on a rise in releasing of stress hormone caused by surgical stress - effects on a rise in releasing of corticosterone, adrenocortical hormone.
Mice (ddY Slc male, 7weeks of age) handled by being fastened up before the day of experiment were divided equally into groups according to their weights on the experimental day (the number of mouse in one group was 6 to 7). Mice were anesthetized by i.p. injections of 2.5mg/mouse pentobarbital Na(Nembutal(brand name)), Dainihonseiyaku) and, 20 minutes later, the solvent(0.1N HCl/saline) or test medicine CP154,526HCl(0.3, 1, 3 or 10 mg/kg) were intravenously injected into the tail veins of mice at a dose of 10ml/Kg weight of mouse. 5 Minutes after injection, a midline incision was made in the abdomen, and in about one to two minutes movable bowel was draped externally, and then, abdominal part was covered with wet absorbent cotton with saline to prevent from drying. In 30 minutes after incision, while the bowel was draped externally, mice were decapitated and blood samples were collected into siliconized tubes, prechilled on ice, which contained 20ul of 100mM EDTA. Blood samples were centrifuged at 7,000 x g and 4°C for 20 minutes and the supernatant was obtained. Negative control mice not subjected to surgical stress were decapitated and blood samples were collected in 35 minutes after injection of the solvent alone. […]

Assay [1] relates to adrenocorticotropic hormone (ACTH). Briefly: Test 1: Effects on a rise in releasing of ACTH caused by surgical stress. The assay is classed as in vivo, mouse. The conditions noted are these: mice. On the procedure: Test 1 Effects on a rise in releasing of stress hormone caused by surgical stress - effects on a rise in releasing of adrenocorticotropic hormone (ACTH)
Mice (ddY Slc male, 7 weeks of age) handled by being fastened up before the day of experiment were divided equally into groups according to their weights on the experimental day (the number of mouse in one group was 10). Mice were anesthetized by i.p. injection of 2.5mg/mouse pentobarbital Na (Nembutal(brand name), Dainihonseiyaku) and, 5 minutes later, the solvent(0.1N HCl/saline)alone or test medicine CP154,526HCl(0.3, 1 or 3 mg/kg)were intravenously injected into the tail veins of mice at a dose of 10ml/Kg weight of mouse. 10 minutes after injection, a midline incision was made in the abdomen and in about two minutes movable bowel was draped externally. Then 25 minutes after incision, 0.6ml of blood sample was collected from aorta abdominalis for 1 minute gradually by using prechilled syringes (needle size 25G) which were wetted with 100mM EDTA solution. Control mice not subjected to surgical stress were given medication by the injection of the solvent alone 5 minutes after anesthesia. […] Blood samples were centrifuged at 7,000 x g and 4°C for 20 minutes and the concentration of ACTH in supernatant was determined by IRMA method using Allegro ACTH kit (Nihon Medi+Physics Co., Ltd.). […]

Assay [2] deals with T1, CRF type I(CRF-I) receptor (Homo sapiens, UniProt P34998).
T1 construct: expressed in transfected cells; membrane fraction
T1 sequence (P34998 24-415): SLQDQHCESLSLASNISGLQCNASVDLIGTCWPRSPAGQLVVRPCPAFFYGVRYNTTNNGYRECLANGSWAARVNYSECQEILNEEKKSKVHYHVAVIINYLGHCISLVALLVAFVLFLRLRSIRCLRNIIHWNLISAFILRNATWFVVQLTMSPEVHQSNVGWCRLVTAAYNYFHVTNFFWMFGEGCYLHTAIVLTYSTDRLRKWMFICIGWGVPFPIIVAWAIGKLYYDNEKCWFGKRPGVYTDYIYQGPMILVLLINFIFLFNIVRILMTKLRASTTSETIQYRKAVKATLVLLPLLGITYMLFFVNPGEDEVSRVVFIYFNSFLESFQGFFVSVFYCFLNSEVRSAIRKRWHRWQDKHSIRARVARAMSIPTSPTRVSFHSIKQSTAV
Briefly: in vitro Binding Assay using membrane fraction of recombinant cell (6EF2B) expressing CRF receptor gene (SPA method). The conditions noted are these: 125I-Tyr0-human/rat CRF, membrane fraction of 6EF2B cells (derived from Hela cell). The protocol: Experiment 1 : in vitro Binding Assay using membrane fraction of recombinant cell (6EF2B) with expression of CRF receptor gene
Preparation of membrane fraction:
Recombinant cells 6EF2B (derived from Hela cell), which express CRF type I(CRF-I) receptor gene stably, were cultivated in Eagle's MEM medium(10%FCS, 400ug/ml G418.1/100 penicillin/streptomycin). After cultivation, cells were suspended in 50mM Tris-HCl (pH7.2) solution containing 1mM EDTA and incubated at 25°C for 15 to 30 minutes. After that, every step was carried out at 4°C. Treated cells were suspended in 50mM Tris-HCl(pH7.2) containing 10% sucrose and homogenized by a Polytron(PT10-35 model). This step of homogenization was carried out at 25,000 rpm for 15 to 20 seconds and repeated twice or three times. In the course of this step the homogenates were inspected under a microscope. Homogenates were centrifuged at 600 x g for 5 minutes and the supernatant was centrifuged again at 40,000 x g for 30 minutes. The obtained pellet was resuspended in 50mM Tris-HCl(10mM MgCl2, 2mM EGTA) and the suspension was centrifuged again at 40,000 x g for 30minutes. The obtained pellet was used for further experiments as membrane fraction. The membrane fraction was diluted with 50mM Tris-HCl(10mM MgCl2, 2mM EGTA, 0.1%BSA, 100 kallikrein units/ml aprotinin, 0.1mM bacitracin, pH7.2) to have the concentration of 1mg/ml and then stored at -80°C. DC protein assay kit (produced by Bio-RAD) was used to determine the protein concentration of the membrane fraction.
Binding Assay using CRF-I receptor by means of SPA method:
Compounds to be evaluated were stored at the concentration of 10mM in DMSO. […] The assay buffer consisted of 50mM Tris-HCl (pH7.7) containing 100mM NaCl, 5mM KCl, 2mM CaCl2, 0.1% BSA, 0.1% bacitracin, 0.05% FCS and 5% horse serum. The reactions were carried out in 96-well Optiplate(Packard) in which to 50ul of the test substance solution, were added 50ul of WGA-beads & membrane fraction (50 to 100ug membrane fraction/10mg beads/ml) pre-coupled by stirring (rotating with 10rpm) at room temperature for 2 hours on the day of experiment, and 100ul of 0.4nM ^125I-Tyr^0-human/rat CRF(NEX-216, Dupont NEN), to be made up 200ul as total volume, and the mixture was incubated at 25°C for 3 hours. By the way, the step of pre-coupling was carried out by using beads solution (20mg/ml) suspended in 50mM Tris-HCl buffer solution (pH7.2) and after stirring beads were washed twice with Tris-HCl buffer and once with assay buffer by centrifugation (3000 rpm, 5 minutes). In order to measure total binding and non-specific binding activity, assay buffer solution and 1uM(final conc.) cold human /rat CRF(C-3042; SIGMA) solution were used respectively in place of test substance solution. After incubation, the mixture was centrifuged at 23 °C, 2,500 rpm for 5 minutes and the scintillation was counted with Top Count (Packard). An influence of color quench was corrected by standard curve made by using tartrazine as a quencher. Evaluation of samples was carried out several times.

For assay [3], the system named is adrenocorticotropic hormone(ACTH). The assay can be described thus: Experiment 2: Model of surgical stress in mouse (inhibitory action of rise in releasing of ACTH). The format is in vivo. The conditions noted are these: ddY male mice, intravenous, surgical stress (abdominal incision, bowel draped externally). On the procedure:
Experiment 2: Model of surgical stress in mouse (Inhibitory action of rise in releasing of adrenocorticotropic hormone(ACTH))
ddY male mice(SLC, 7 to 8 weeks of age: weight 34 to 42g)were used for experiments. Mice were housed before use under controlled lighting condition (12hours light and 12hours dark cycle(lights on from 8:00 to 20:00) at 23±3 °C and 55±15% humidity, and maintained with basal diet and water ad labium. On the experimental day, mice were moved to experimental room and habituated before experiment for more than 1 hour. On the day before experiment, mice were previously handled (by being fastened up for 10 to 15 seconds like the case of i.p. injections) to habituate to the stress caused by handling.
Medicine and administration:
Test compound to be evaluated was dissolved in and diluted with physiological saline(Otsuka), 5% mannitol or 0.1N NaHCO3/saline. Then the test sample solution was given into veins of mice at a dose of 10ml/Kg body weight. The same solvent alone mentioned above was given into veins of control mice group at a dose of 10ml/Kg weight.
Mice were anesthetized by injection of pentobarbital Na (2.5mg/mouse i.p.) and after 15 minutes the solvent alone or the solution containing test sample to be evaluated were intravenously injected on the tails of mice at a dose of 10ml/ Kg weight of mouse. After more 10 minutes a midline incision was made in the abdomen and in two minutes bowel was draped externally. Then 2.5 minutes after incision 0.6ml of blood samples were collected from main vein abdominalis for 1 minute gradually by using prechilled syringes(needle size 25G), which were wetted with 100mM EDTA solution. Control mice not subjected to surgical stress were decapitated and blood samples were collected at 13 to 14 minutes after medication of solvent alone and to them added 20ul of 100mM EDTA. Blood samples collected were put into siliconized tubes and centrifuged at 10,000rpm and 4°C for 5 minutes. The concentration of ACTH in supernatant was determined by IRMA method using Allegro ACTH kit (Nihon Medi+Physics Co.,Ltd.). […]

[4] abbreviates: read-out: IC50(nM) [experiment 1].

`CCCCN(CC)c1nc(C)nc2c1c(C)cn2-c1c(C)cc(C)cc1C.Cl` [CP-154,526 HCl, N-butyl-N-[2,5-dimethyl-7-(2,4,6-trimethylphenyl)-7H -pyrrolo[2,3-d]pyrimidine-4-yl]-N-ethylamine chloride]: the “increase of corticosterone concentration in plasma” value in the assay on corticosterone (i.v. 0.3, 1, 3 or 10 mg/kg, surgical stress, viscera exposed 30 minutes, dose-dependently (Fig. 2)) is reported as “inhibited”. Also, the “dose showing statistically significant inhibitory action on increase of corticosterone concentration in plasma” value in the assay with corticosterone (i.v., surgical stress (Fig. 2)) was “not less than 10 mg/Kg”. Moreover, the “increase of ACTH concentration in plasma” value in assay [1] (i.v. 0.3, 1 or 3 mg/kg, surgical stress, dose-dependently (Fig. 1)) is recorded as “inhibited”. In assay [1] (i.v., surgical stress (Fig. 1)), the “dose showing statistically significant inhibitory action on increase of ACTH concentration in plasma” value is reported as “not less than 1 mg/Kg”.

Take `CCc1cc(S(=O)(=O)N(CC)CC)cc(NC(=O)c2cc(Cl)c(O)c(Cl)c2)c1OC` [Example 6, 3,5-dichloro-N-(3-ethyl-5-diethylsulfamoyl-2-methoxyphenyl)-4-hydroxybenzamide]: the IC50 (usually the concentration needed to halve the response being measured) in assay [2] (setting [4]) is 218 nM. For the compound `CCc1cc(S(=O)(=O)N(CC)CC)cc(NC(=O)c2cc(Cl)c([O-])c(Cl)c2)c1OC.[Na+]` [Example 8, sodium 2,6-dichloro-4-(N-(3-ethyl-5-diethylsulfamoyl-2-methoxyphenyl)carbamoyl)phenoxide], the “Inhibitory action on ACTH release (mg/kg) [experiment 2]” value in assay [3] lay within 10 to 30 mg/kg. The IC50 in assay [2] (setting [4]) is 195 nM. Consider `CCc1cc(S(=O)(=O)N(CC)CC)cc(NC(=O)c2cc(Cl)c(OP(=O)(O)O)c(Cl)c2)c1OC.O=P(O)(O)O` [Example 9, phosphate 2,6-dichloro-4-(N-(3-ethyl-5-diethylsulfamoyl-2-methoxyphenyl)carbamoyl)phenylphosphate], for which the “Inhibitory action on ACTH release (mg/kg) [experiment 2]” value in assay [3] was in the range of 10 to 30 mg/kg. Further, the IC50 in assay [2] (IC50(nM) [experiment 1]) amounted to 278 nM.

As for `CCN(CC)S(=O)(=O)c1cc(NC(=O)c2cc(Cl)c(O)c(Cl)c2)c(OC)c(OC)c1` [Example 10, 3,5-dichloro-N-(5-diethylsulfamoyl-2,3-dimethoxyphenyl)-4-hydroxybenzamide], the half-inhibitory concentration (IC50) in assay [2] (setting [4]) is 165 nM. Still for that read-out and setting: the result for `CCN(CC)S(=O)(=O)c1cc(NC(=O)c2cc(Cl)c(O)c([N+](=O)[O-])c2)c(OC)c(OC)c1` [Example 11, 3-chloro-N-(5-diethylsulfamoyl-2,3-dimethoxyphenyl)-4-hydroxy-5-nitrobenzamide] reads 123 nM; that for `CCN(CC)S(=O)(=O)c1cc(NC(=O)c2cc(Cl)c(O)c(Cl)c2)c(OC)c(N(C)C)c1` [Example 12, 3,5-dichloro-N-(5-diethylsulfamoyl-3-(dimethylamino)-2-methoxyphenyl)-4-hydroxybenzamide.], 57 nM.
